Measurements from US20260041093A1, “Ionic Derivatives Of Aromatic Carboxylic Acid For Use As Plant Stimulants, Method For Stimulating Plants And Use Of These Derivatives For Manufacturing Compositions For Stimulating Plants” (FUNDACJA UNIWERSYTETU IM. ADAMA MICKIEWICZA W POZNANIU, priority 2022, published 2026).

Legend:
[1] = test system: Pseudomonas syringae pv. Tomato (Pst); assay: Protection of tomato against Pseudomonas syringae pv. Tomato by watering (Example 32); format: in vivo; conditions: 80 mg/L; watered twice; Pst 10^5; 2 weeks after infection
Experimental: (§1) Tomato plants, at the stage of the first pair of developed true leaves, were watered twice with a solution of substance 1-6 at a concentration of 80 mg/L, at a weekly interval. The control was tomato plants watered only with water. One week after the second treatment, a suspension of Pst bacteria at a concentration of 10^5 was spot-injected into the leaves using an insulin syringe (without a needle). The suspension was prepared from a two-day culture of Pst on solid medium. Protection against biotic stress was evaluated by the proliferation of bacteria in the leaves at the insertion site and the formation of a necrotic spot, compared to the control.

[2] = test system: Pseudomonas syringae pv. Tomato (Pst); assay: Protection of tomato against Pseudomonas syringae pv. Tomato by spraying (Example 33); format: in vivo, Lycopersicon Esculentum Mill tomato; conditions: 80 mg/L, sprayed twice; 2 weeks after infection
Experimental: as §1
The procedure was followed as in Example 32, with the plants sprayed.

[3] = test system: TMV; assay: Protection of tobacco against TMV infected 3 weeks after the last treatment (Example 27); format: in vivo; conditions: infected with TMV 3 weeks after the last treatment
Experimental: They proceeded as in Example 24, using substances 1-4 at concentrations of 10, 40 and 80 mg/L for treatment, with treated and control plants divided into 3 batches and their leaves infected with the virus 1, 2 and 3 weeks after the last treatment, respectively. […] A similar effect occurred with spraying.

[4] = test system: powdery mildew fungus; assay: Direct effect on fungal infectivity (Example 23); format: in vivo; conditions: tobacco plant, 5 days after infection with solution of fungus and test substance; control 100
Experimental: Proceeding as in Example 21, the test was performed on the powdery mildew fungus, which was then incubated on the medium.

SMILES: C[N+](C)(C)CCO.O=C([O-])c1cccc(Cl)c1O [choline 3-chlorosalicylate]
- % reduction in necrotic spots compared to control [1]: 92%
- % reduction in necrotic spots compared to control [2]: 93%
- % reduction in necrotic spots compared to control ([3]; 10 mg/L): 58%
- % reduction in necrotic spots compared to control ([3]; 40 mg/L): 92%
- % reduction in necrotic spots compared to control ([3]; 80 mg/L): 98%
- % of necrotic spots [4]: 100%
